Test results taken from patent US20050004011A1, “Compositions and methods for treating bacterial infections with protein-dalbavancin complexes” (priority 2002, published 2005).
Several values for one entry are separate records, joined by “and”; a condition that tells them apart may be missing. Identical values can stand only once. Like-named read-outs stand apart in the source and are kept apart here.

Key:
[1] = Phase II SSTI trial: dalbavancin plasma concentrations; type: in vivo, human; conditions: for Mean dalbavancin plasma concentration: two-dose regimen
S. aureus = test: Dalbavancin MIC of baseline isolates; type: cell-based; conditions: All S. aureus
Rat mass balance study = type: in vivo, Sprague-Dawley rats
Method: Mass balance studies were conducted to determine the excretion pattern of dalbavancin following a single intravenous (IV) infusion of dalbavancin in male rats.
Water and methanol cage washes were also collected.

human α-glycoprotein = test: Protein binding by isothermal titration microcalorimetry; conditions: for apparent binding affinity Ka: pH 7.4; for Calculated percent binding: α-glycoprotein […]10^−5M
Method: (§3) Integrated heat effects, after correction for heats of dilution, were analyzed by non-linear regression using a simple single-site binding model with the standard Microcal ORIGIN software package. Raw data (μcal/sec) for each injection were integrated to give the total heat effect per addition, then divided by amount of injectant to give kcal/mole of injectant. The same integration was applied for control dilution effects, and this was subtracted from the actual titration data. This provided a differential of the binding curve in which the extent of binding is proportional to the total heat liberated (or absorbed). This was then analyzed by non-linear regression methods in terms of various standard binding models.

Streptococcus pyogenes = test: Dalbavancin MIC of baseline isolates; type: cell-based
[2] = tested on: N,N′-diacetyl-Lys-D-Ala-D-Ala; test: ITC of binding to tri-peptide, with and without HSA
Group B streptococcus = test: Dalbavancin MIC of baseline isolates; type: cell-based
human albumin = human albumin (Homo sapiens, UniProt P02768); test: Protein binding by isothermal titration microcalorimetry
Sequence of human albumin (P02768 25-609): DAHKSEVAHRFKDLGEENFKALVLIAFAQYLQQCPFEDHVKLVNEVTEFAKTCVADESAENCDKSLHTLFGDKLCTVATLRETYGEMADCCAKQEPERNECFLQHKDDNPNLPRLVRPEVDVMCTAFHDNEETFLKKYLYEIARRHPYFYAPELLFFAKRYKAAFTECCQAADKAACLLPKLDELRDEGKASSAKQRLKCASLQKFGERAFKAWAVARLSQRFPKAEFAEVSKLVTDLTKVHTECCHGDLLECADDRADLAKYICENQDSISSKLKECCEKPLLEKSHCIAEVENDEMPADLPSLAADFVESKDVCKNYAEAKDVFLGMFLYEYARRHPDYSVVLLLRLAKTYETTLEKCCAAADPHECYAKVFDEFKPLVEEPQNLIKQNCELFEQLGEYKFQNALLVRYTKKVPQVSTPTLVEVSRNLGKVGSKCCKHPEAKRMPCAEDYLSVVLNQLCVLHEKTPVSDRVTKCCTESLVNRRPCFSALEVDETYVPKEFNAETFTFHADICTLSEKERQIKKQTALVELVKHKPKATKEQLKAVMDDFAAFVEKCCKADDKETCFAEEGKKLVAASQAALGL
Method: as §3

[3] = ESI-MS of multimers in solution
Method: Experiments were performed using an Applied Biosystem API III+mass spectrometer equipped with a TurboIonSpray source, a Triple Quadrupole analyzer, operating in positive ion mode.
The mass spectra were obtained in electrospray positive mode on a Finnigan LCQDeca ion trap instrument previously tuned and calibrated in electrospray mode using Ultramark 1621, caffeine and MRFA (L-metionyl-arginyl-phenilalanyl-arginine).
The mass spectra were obtained in electrospray positive mode on a Finnigan LCQ^Deca ion trap instrument previous tuned and calibrated in electrospray mode using Ultramark 1621, caffeine and MRFA (L-metionyl-arginyl-phenilalanyl-arginine).

[4] = tested on: Gram-positive pathogen identified at baseline; test: Phase II SSTI trial: microbiological response; type: in vivo, human; conditions: for Success rate by pathogen: MITT at FU; for Microbiologic success rate: MITT population; for Eradication/presumed eradication rate, all organisms / S. aureus eradication rate: microbiologically-evaluable population at FU
Method: (§1) This randomized, controlled study evaluated the safety and efficacy of two dose regimens of dalbavancin.
(§2) There were 62 patients randomized into the study; all received at least one dose of study medication. Four study populations were evaluated for safety and efficacy and were defined as follows: The intent-to-treat (ITT) population included all patients who received at least one dose of study drug (all randomized study subjects).
Microbiological outcome, a secondary efficacy variable, was assessed in the subpopulation of patients who had microbiologically documented SSTI (i.e., at least one identified baseline pathogen). A microbiologic response was assessed for each Gram-positive pathogen identified at baseline (i.e., eradication, presumed eradication, persistence, presumed persistence). For patients for whom follow-up cultures were not performed, the microbiologic responses for baseline pathogens were presumed on the basis of the clinical response. Microbiologic response by patient at the EOT and FU visits was graded as success (i.e., all Gram-positive organisms eradicated or presumed eradicated) or failure (i.e., at least one Gram-positive organism persisted or presumed to have persisted, multiple pathogens with partial eradication). At both the EOT and FU visits, colonization and superinfection were assessed. At the FU visit, a patient's bacteriological response could also include recurrence.

[5] = Stability of dalbavancin in plasma; type: in vitro ADME, human
Method: A quality control standard of 1.5 μg/ml was prepared by spiking human plasma with an appropriate volume of a 50 μg/ml solution.

[6] = Safety assessments in healthy subjects; type: in vivo, human; conditions: single 1000 mg IV
Method: Adverse events were recorded and assessed for severity and relationship to study drug. Laboratory data (chemistry panel, CBC with differential, urinalysis) were collected and assessed for changes from baseline and out-of-range values. ECG, physical examination, and vital signs were obtained, and changes from baseline were assessed.

[7] = Pharmacokinetics and renal excretion in healthy subjects; type: in vivo, human
Method: Blood samples were drawn into heparinized tubes and centrifuged. Plasma was separated and stored frozen at −20° C. until time of assay. Plasma and urine samples were assayed for dalbavancin using validated LC/MS/MS methods. […] The peak concentration (Cmax) values were obtained directly from the observed data. The area under the plasma concentration-time curve (AUC) was calculated using the linear trapezoidal rule. Clearance (CL) was computed as dose/AUC. The elimination half life (t1/2) was estimated by linear regression of the log-linear portion of the log concentration versus time curve. Estimates of the volume of distribution (Vz) was calculated using the regression parameters, while the volume of distribution at steady state (Vss) was calculated from the area under the first moment curve (AUMC) multiplied by the dose and divided by AUC. The cumulative amount of dalbavancin excreted in urine was determined as the integrand of the urine excretion rate (AURC). CLR, or renal clearance, was calculated as the ratio: CLR=AURC/AUC.

[8] = tested on: skin and soft tissue infections (SSTI); test: Phase II trial in deep skin and soft tissue infections: clinical response; type: in vivo, human
Method: as §1, §2
The effectiveness of the three treatment regimens was determined by assessing the patients' clinical response and the documented or presumed microbiological responses. The primary efficacy endpoint was clinical response at the follow-up visit for the clinically evaluable population. Clinical response, for both EOT and FU visits, was categorized as success (cure or improvement) or failure (including indeterminate results). Patients classified as successes must not have received additional systemic antibacterial treatment for their infection. Failure was defined as persistence of one or more local or systemic signs and symptoms of SSTI such that treatment with new or additional systemic antibacterial agents was required for the SSTI.

[9] = MITT isolates of standard of care group
[10] = MITT isolates of two-dose group

## CN[C@H]1C(=O)N[C@@H]2Cc3ccc(cc3)Oc3cc4cc(c3O[C@@H]3O[C@H](C(=O)O)[C@@H](O)[C@H](O)[C@H]3NC(=O)CCCCCCCCC(C)C)Oc3ccc(cc3Cl)[C@@H](O)[C@@H]3NC(=O)[C@H](NC(=O)[C@@H]4NC(=O)[C@@H](NC2=O)c2cc(cc(O)c2Cl)Oc2cc1ccc2O)c1ccc(O)c(c1)-c1c(O[C@H]2O[C@H](CO)[C@@H](O)[C@H](O)[C@@H]2O)cc(O)cc1[C@@H](C(=O)NCCCN(C)C)NC3=O [Dalbavancin]
[1]; single-dose regimen, Study day 10
  Mean dalbavancin plasma concentration (mean±SD): 25.2 ± 4.8 mg/L
[1]; Study day 8 (prior to the second dose)
  Mean dalbavancin plasma concentration: 30.4 ± 8.2 mg/L
[1]; Study day 20
  Mean dalbavancin plasma concentration: 21.2 ± 10.0 mg/L
[1]; Study day 34
  Mean dalbavancin plasma concentration: 9.0 ± 4.4 mg/L
S. aureus; MITT isolates of single-dose group
  Dalbavancin MIC: (0.12) mg/L
S. aureus; [9]
  Dalbavancin MIC range: (0.016-0.25) mg/L
S. aureus; [10]
  Dalbavancin MIC: (0.12) mg/L
Rat mass balance study; 70 days post dose
  dose remaining in the carcass: 4.5%
Rat mass balance study; rat
  plasma t1/2: approximately 1 week
Rat mass balance study; single IV 20 mg/kg, male rats
  share of excreted radioactivity eliminated in feces: ⅓
  share of excreted radioactivity eliminated in urine: ⅔
Rat mass balance study; within the first week
  administered radioactivity eliminated in urine and feces: Approximately half
Human α-glycoprotein; 25° C.
  apparent binding affinity Ka: 1.84 (±0.36) ×10^5 M^−1
Human α-glycoprotein; 37° C.
  apparent binding affinity Ka: 4.8 (±2.3) ×10^5 M^−1
Human α-glycoprotein; antibiotic 1 μM
  Calculated percent binding: 73.0%
Human α-glycoprotein; antibiotic 500 μM
  Calculated percent binding: 5.9%
Streptococcus pyogenes; [9]
  Dalbavancin MIC: (0.016) mg/L
Streptococcus pyogenes; [10]
  Dalbavancin MIC: (0.016) mg/L
[2]; 25° C., plateau at high HSA
  weaker binding affinity than in the absence of HSA: 10-12 ×
[2]; T 25 ° C., [HSA] 104 μM
  Kass: 34900 M⁻¹
[2]; T 25 ° C., [HSA] 288 μM
  Kass: 31000 M⁻¹
[2]; T 25 ° C., [HSA] 430 μM
  Kass: 28400 M⁻¹
[2]; T 37 ° C., [HSA] 0 μM
  Kass: 130000 M⁻¹ and 110000 M⁻¹
[2]; T 37 ° C., [HSA] 516 μM
  Kass: 9568 M⁻¹
[2]; read-out: Kdiss (preliminary experiments), absence of serum proteins, depending on temperature
  Kd: 1 to 10 µM
[2]; read-out: Kdiss, T 25 ° C., [HSA] 288 μM
  Kd: 32.3 µM
[2]; read-out: Kdiss, T 37 ° C., [HSA] 0 μM
  Kd: 7.69 µM and 9.09 µM
[2]; read-out: Kdiss, T 37 ° C., [HSA] 516 μM
  Kd: 105 µM
Group B streptococcus; [9]
  Dalbavancin MIC: (0.016) mg/L
Group B streptococcus; [10]
  Dalbavancin MIC: (0.016) mg/L
Human albumin
  binding stoichiometry modeling (drug:protein): two dalbavancin molecules are bound to one molecule of protein
Human albumin; antibiotic 500 μM, human serum albumin 6×10^−4 M
  Calculated percent binding: 98.0%
Human albumin; in all cases (all proteins)
  N (binding stoichiometry, protein to dalbavancin): < 1
[3]
  Multimers in solution (ESI-MS): presence of dalbavancin multimers
[3]; 20, 40, 60, and 80 μg/mL
  population ratio of multimer to monomer vs concentration: increases with increasing concentration
[3]; ammonium formate 5, 50, 100 mM, pH 5, increase in buffer concentration
  population ratio of multimer to monomer vs ionic strength: decrease
[3]; pH 2.5 to 5.5
  population ratio of multimer to monomer vs pH: increases with increasing pH
[4]; All S. aureus, single-dose (1100 mg)
  Success rate by pathogen: 5/13 (38%)
[4]; All S. aureus, two-dose (1000/500 mg)
  Success rate by pathogen: 9/11 (82%)
[4]; EOT, single-dose (1100 mg)
  Microbiologic success rate: 5/14 (35.7) %
[4]; EOT, two-dose (1000/500 mg)
  Microbiologic success rate: 10/13 (76.9) %
[4]; FU, single-dose (1100 mg)
  Microbiologic success rate: 3/14 (21.4) %
[4]; FU, two-dose (1000/500 mg)
  Microbiologic success rate: 9/13 (69.2) %
[4]; Methicillin-sensitive S. aureus, single-dose (1100 mg)
  Success rate by pathogen: 2/7 (29%)
[4]; Methicillin-sensitive S. aureus, two-dose (1000/500 mg)
  Success rate by pathogen: 5/6 (83%)
[4]; Miscellaneous streptococcus species, single-dose (1100 mg)
  Success rate by pathogen: 2/3 (67%)
[4]; Miscellaneous streptococcus species, two-dose (1000/500 mg)
  Success rate by pathogen: 4/4 (100%)
[4]; Total organisms, single-dose (1100 mg)
  Success rate by pathogen: 7/16 (43.8%)
[4]; Total organisms, two-dose (1000/500 mg)
  Success rate by pathogen: 14/16 (87.5%)
[4]; single-dose
  Eradication/presumed eradication rate, all organisms: 58%
  S. aureus eradication rate: 50%
[4]; two-dose
  Eradication/presumed eradication rate, all organisms: 92%
  S. aureus eradication rate: 90%
[5]; 24 hours at room temperature
  Stability in processed plasma samples: stable
[5]; three cycles of freeze-thaw, 1.5 and 90 μg/ml
  Stability in human plasma, detectable concentration: stable
[6]
  Subject deaths or serious adverse events: No subject deaths or serious adverse events
  Tolerability: well-tolerated
[6]; six subjects
  Volunteers reporting AEs possibly related to study medication: Three
[7]; human, in vivo
  peak concentration in man: ~165 µM
[7]; single 1000 mg IV, mean
  CLR: 0.018 L/h
  VZ: 16.0 L
[7]; single intravenous infusion of 1000 mg
  plasma concentration maintained for at least seven days: above 45 mg/l
[8]; MITT at FU, patients with MRSA, single-dose
  Clinical success rate: 50%
[8]; MITT at FU, patients with MRSA, two-dose
  Clinical success rate: 80%
[8]; subanalysis: deep or complicated SSTI at baseline, single-dose
  Clinical success rate: 58.3%
[8]; subanalysis: deep or complicated SSTI at baseline, two-dose
  Clinical success rate: 93.8%
